In US20160297833A1, “THIENOPYRIMIDINES AS MKNK1 AND MKNK2 INHIBITORS” (BAYER PHARMA AKTIENGESELLSCHAFT, priority 2013, published 2016):

Biological target: T1, human full-length MKNK1 (Homo sapiens, UniProt Q9BUB5, T385D)
T1 construct: GST (N); purchased Carna Biosciences 02-145; host or cells: insect cells (baculovirus expression system)
Assay: MKNK1 kinase high ATP assay (TR-FRET)
Type: biochemical
Conditions: for IC50: Table 1, MKNK1 kinase high ATP assay, 2 mM ATP, read-out: MKNK1 IC50
How it was run: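 Full-length human MKNK1 (T385D) preincubated 15 min at 22 °C with compound in HEPES pH 7.5/MgCl2/DTT buffer; reaction with 2 mM ATP (final) and 0.06 μM biotinylated peptide (final), 30 min at 22 °C.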

T1 sequence (Q9BUB5 1-424 isoform Q9BUB5-2 T344D): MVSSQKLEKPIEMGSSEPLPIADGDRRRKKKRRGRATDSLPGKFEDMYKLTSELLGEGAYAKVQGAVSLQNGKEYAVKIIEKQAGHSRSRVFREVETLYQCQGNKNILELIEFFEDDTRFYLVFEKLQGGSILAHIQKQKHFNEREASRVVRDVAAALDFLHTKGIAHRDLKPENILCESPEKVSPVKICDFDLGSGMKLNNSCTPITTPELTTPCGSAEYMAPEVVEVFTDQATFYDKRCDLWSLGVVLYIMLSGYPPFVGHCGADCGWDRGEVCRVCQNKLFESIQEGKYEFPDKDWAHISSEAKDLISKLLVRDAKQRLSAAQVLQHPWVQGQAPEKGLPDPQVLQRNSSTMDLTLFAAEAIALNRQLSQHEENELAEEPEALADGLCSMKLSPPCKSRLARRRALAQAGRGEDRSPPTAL

SMILES	IC50 [nM]	Activity-Ratio MKNK1 (Table 2, ratio of the IC50-value of an R-enantiomer and its corresponding S-enantiomer)
CCOc1cc2[nH]ncc2cc1Nc1ncnc2sc3c(c12)CC[C@H](C(=O)N1CC(N(C)C)C1)C3 [Example 218, [3-(Dimethylamino)azetidin-1-yl]{(7S)-4-[(6-ethoxy-1H-indazol-5-yl)amino]-5,6,7,8-tetrahydro[1]benzothieno[2,3-d]pyrimidin-7-yl}methanone]	0.2	
O=C([C@H]1CCc2c(sc3ncnc(Nc4cc5cn[nH]c5cc4Br)c23)C1)N1CCOCC1 [Example 237, {(7S)-4-[(6-Bromo-1H-indazol-5-yl)amino]-5,6,7,8-tetrahydro[1]benzothieno[2,3-d]pyrimidin-7-yl}(morpholin-4-yl)methanone]	2.8	
CC(C)Oc1cc2[nH]ncc2cc1Nc1ncnc2sc3c(c12)CC[C@@H](C(=O)N1CC2(COC2)C1)C3 [Example 89, 2-Oxa-6-azaspiro[3.3]hept-6-yl[(7R)-4-{[6-(propan-2-yloxy)-1H-indazol-5-yl]amino}-5,6,7,8-tetrahydro[1]benzothieno[2,3-d]pyrimidin-7-yl]methanone]	6	
CCCN(C)C(=O)[C@H]1CCc2c(sc3ncnc(Nc4cc5cn[nH]c5cc4N4CCC(N(C)C)CC4)c23)C1 [Example 156, (7S)-4-({6-[4-(Dimethylamino)piperidin-1-yl]-1H-indazol-5-yl}amino)-N-methyl-N-propyl-5,6,7,8-tetrahydro[1]benzothieno[2,3-d]pyrimidine-7-carboxamide]	10.7	
C[C@H](N)COc1cc2[nH]ncc2cc1Nc1ncnc2sc3c(c12)CC[C@H](C(=O)N1CCOC[C@@H]1C)C3 [Example 143, {(7S)-4-[(6-{[(2S)-2-Aminopropyl]oxy}-1H-indazol-5-yl)amino]-5,6,7,8-tetrahydro[1]benzothieno[2,3-d]pyrimidin-7-yl}[(3S)-3-methylmorpholin-4-yl]methanone]	3	
CC(C)Oc1cc2[nH]ncc2cc1Nc1ncnc2sc3c(c12)CC[C@H](C(=O)N1CCOC[C@@H]1C)C3 [Example 84, [(3S)-3-Methylmorpholin-4-yl][(7S)-4-{[6-(propan-2-yloxy)-1H-indazol-5-yl]amino}-5,6,7,8-tetrahydro[1]benzothieno[2,3-d]pyrimidin-7-yl]methanone]	0.7	
COc1cc2[nH]ncc2cc1Nc1ncnc2sc3c(c12)CC[C@@H](C(=O)N1CCC1)C3 [Example 22, Azetidin-1-yl{(7R)-4-[(6-methoxy-1H-indazol-5-yl)amino]-5,6,7,8-tetrahydro[1]benzothieno[2,3-d]pyrimidin-7-yl}methanone]	21.4	
CN(C)C(=O)[C@H]1CCc2c(sc3ncnc(Nc4cc5cn[nH]c5cc4OCCN4CCCC4=O)c23)C1 [Example 193, (7S)—N,N-Dimethyl-4-({6-[2-(2-oxopyrrolidin-1-yl)ethoxy]-1H-indazol-5-yl}amino)-5,6,7,8-tetrahydro[1]benzothieno[2,3-d]pyrimidine-7-carboxamide]	222	
COCCN(C)C(=O)[C@H]1CCc2c(sc3ncnc(Nc4cc5cn[nH]c5cc4Cl)c23)C1 [Example 230, (7S)-4-[(6-Chloro-1H-indazol-5-yl)amino]-N-(2-methoxyethyl)-N-methyl-5,6,7,8-tetrahydro[1]benzothieno[2,3-d]pyrimidine-7-carboxamide]	2.5	
CSc1cc2[nH]ncc2cc1Nc1ncnc2sc3c(c12)CC[C@H](C(=O)N(C)C)C3 [Example 106, (7S)—N,N-Dimethyl-4-{[6-(methylsulfanyl)-1H-indazol-5-yl]amino}-5,6,7,8-tetrahydro[1]benzothieno[2,3-d]pyrimidine-7-carboxamide]	4.6	
CN(C)C(=O)[C@H]1CCc2c(sc3ncnc(Nc4cc5cn[nH]c5cc4N4CCCC4)c23)C1 [Example 103, (7S)—N,N-Dimethyl-4-{[6-(pyrrolidin-1-yl)-1H-indazol-5-yl]amino}-5,6,7,8-tetrahydro[1]benzothieno[2,3-d]pyrimidine-7-carboxamide]	1.3	
COc1cc2[nH]ncc2cc1Nc1ncnc2sc3c(c12)CC[C@H](C(=O)N1CC[C@H](N(C)C)C1)C3 [Example 45, [(3S)-3-(Dimethylamino)pyrrolidin-1-yl]{(7S)-4-[(6-methoxy-1H-indazol-5-yl)amino]-5,6,7,8-tetrahydro[1]benzothieno[2,3-d]pyrimidin-7-yl}methanone]	0.2	
CN(C)C(=O)[C@H]1CCc2c(sc3ncnc(Nc4cc5cn[nH]c5cc4OCCCN4CCCC4)c23)C1 [Example 277, (7S)—N,N-Dimethyl-4-({6-[3-(pyrrolidin-1-yl)propoxy]-1H-indazol-5-yl}amino)-5,6,7,8-tetrahydro[1]benzothieno[2,3-d]pyrimidine-7-carboxamide]	59.2	
COc1cc2[nH]ncc2cc1Nc1ncnc2sc3c(c12)CC[C@H](C(=O)N1CCCO1)C3 [Example 213, {(7S)-4-[(6-Methoxy-1H-indazol-5-yl)amino]-5,6,7,8-tetrahydro[1]benzothieno[2,3-d]pyrimidin-7-yl}(1,2-oxazolidin-2-yl)methanone]	0.4	
COc1cc2[nH]ncc2cc1Nc1ncnc2sc3c(c12)CC[C@H](C(=O)N(C)CCC(C)(C)O)C3 [Example 215, (7S)—N-(3-Hydroxy-3-methylbutyl)-4-[(6-methoxy-1H-indazol-5-yl)amino]-N-methyl-5,6,7,8-tetrahydro[1]benzothieno[2,3-d]pyrimidine-7-carboxamide]	1	
CC(C)Oc1cc2[nH]ncc2cc1Nc1ncnc2sc3c(c12)CC[C@@H](C(=O)N(C)C)C3 [Example 79, (7R)—N,N-Dimethyl-4-{[6-(propan-2-yloxy)-1H-indazol-5-yl]amino}-5,6,7,8-tetrahydro[1]benzothieno[2,3-d]pyrimidine-7-carboxamide]	12.1	
CN(C)CCOc1cc2[nH]ncc2cc1Nc1ncnc2sc3c(c12)CC[C@H](C(=O)N(C)C)C3 [Example 109, (7S)-4-({6-[2-(Dimethylamino)ethoxy]-1H-indazol-5-yl}amino)-N,N-dimethyl-5,6,7,8-tetrahydro[1]benzothieno[2,3-d]pyrimidine-7-carboxamide]	16.5	
CC(C)Oc1cc2[nH]ncc2cc1Nc1ncnc2sc3c(c12)CC[C@H](C(=O)N(CCO)CCO)C3 [Example 91, (7S)—N,N-bis(2-Hydroxyethyl)-4-{[6-(propan-2-yloxy)-1H-indazol-5-yl]amino}-5,6,7,8-tetrahydro[1]benzothieno[2,3-d]pyrimidine-7-carboxamide]	0.1	
COCCN(CCOC)C(=O)[C@H]1CCc2c(sc3ncnc(Nc4ccc5[nH]ncc5c4)c23)C1 [Example 16, (7S)-4-(1H-Indazol-5-ylamino)-N,N-bis(2-methoxyethyl)-5,6,7,8-tetrahydro[1]benzothieno[2,3-d]pyrimidine-7-carboxamide]	2.4	
COc1cc2[nH]ncc2cc1Nc1ncnc2sc3c(c12)CC[C@H](C(=O)N(C)CCO)C3 [Example 38, (7S)—N-(2-Hydroxyethyl)-4-[(6-methoxy-1H-indazol-5-yl)amino]-N-methyl-5,6,7,8-tetrahydro[1]benzothieno[2,3-d]pyrimidine-7-carboxamide]	0.3	28.1
CSc1cc2[nH]ncc2cc1Nc1ncnc2sc3c(c12)CC[C@H](C(=O)N1CCC1)C3 [Example 250, Azetidin-1-yl[(7S)-4-{[6-(methylsulfanyl)-1H-indazol-5-yl]amino}-5,6,7,8-tetrahydro[1]benzothieno[2,3-d]pyrimidin-7-yl]methanone]	2.8	
CN(C)C(=O)[C@H]1CCc2c(sc3ncnc(Nc4cc5cn[nH]c5cc4N4CCC4)c23)C1 [Example 102, (7S)-4-{[6-(Azetidin-1-yl)-1H-indazol-5-yl]amino}-N,N-dimethyl-5,6,7,8-tetrahydro[1]benzothieno[2,3-d]pyrimidine-7-carboxamide]	24.5	
CCOc1cc2[nH]ncc2cc1Nc1ncnc2sc3c(c12)CC[C@H](C(=O)N1C[C@@H](C)O[C@@H](C)C1)C3 [Example 167, [(2R,6S)-2,6-dimethylmorpholin-4-yl]{(7S)-4-[(6-ethoxy-1H-indazol-5-yl)amino]-5,6,7,8-tetrahydro[1]benzothieno[2,3-d]pyrimidin-7-yl}methanone]	0.3	
COc1cc2[nH]ncc2cc1Nc1ncnc2sc3c(c12)CC[C@H](C(=O)N(CCN(C)C)Cc1cccnc1)C3 [Example 61, (7S)—N-[2-(Dimethylamino)ethyl]-4-[(6-methoxy-1H-indazol-5-yl)amino]-N-(pyridin-3-ylmethyl)-5,6,7,8-tetrahydro[1]benzothieno[2,3-d]pyrimidine-7-carboxamide]	0.1	
CC(C)N(C(=O)[C@H]1CCc2c(sc3ncnc(Nc4ccc5[nH]ncc5c4)c23)C1)C(C)C [Example 127, (7S)-4-(1H-Indazol-5-ylamino)-N,N-di(propan-2-yl)-5,6,7,8-tetrahydro[1]benzothieno[2,3-d]pyrimidine-7-carboxamide]	6.5	
COc1cc2[nH]ncc2cc1Nc1ncnc2sc3c(c12)CC[C@H](C(=O)N(C)CC(C)(C)C)C3 [Example 177, (7S)—N-(2,2-Dimethylpropyl)-4-[(6-methoxy-1H-indazol-5-yl)amino]-N-methyl-5,6,7,8-tetrahydro[1]benzothieno[2,3-d]pyrimidine-7-carboxamide]	2.6	
C[C@H](N)COc1cc2[nH]ncc2cc1Nc1ncnc2sc3c(c12)CC[C@H](C(=O)N(C)C)C3 [Example 142, (7S)-4-[(6-{[(2S)-2-Aminopropyl]oxy}-1H-indazol-5-yl)amino]-N,N-dimethyl-5,6,7,8-tetrahydro[1]benzothieno[2,3-d]pyrimidine-7-carboxamide]	3.5	
COc1cc2[nH]ncc2cc1Nc1ncnc2sc3c(c12)CC[C@H](C(=O)N(CCO)C1COC1)C3 [Example 37, (7S)—N-(2-Hydroxyethyl)-4-[(6-methoxy-1H-indazol-5-yl)amino]-N-(oxetan-3-yl)-5,6,7,8-tetrahydro[1]benzothieno[2,3-d]pyrimidine-7-carboxamide]	0.3	
